Assay results taken from patent US4876243A, “Vasopressin compounds” (Smithkline Beckman Corporation, priority 1987, dated 1989).
*1 amine or outer side, *2 acyl side, *3 side chain or, on linkers, in order; H or OH if unused. Where a SMILES comes first, the peptide text is derived from it. Bridges are numbered along the chain shown (N, C = ends). [ ]: non-standard residue; d: D form. X1 = O=C(CC1(S[*:2])CCCCC1)[*:1]; αMeV = CC(C)[C@](C)(N)C(=O)O; Aib = CC(C)(N)C(=O)O

Columns and labels:
V2-vasopressin receptors [1] = biological target: T1, V2-vasopressin receptors (Sus scrofa, UniProt P32307); assay: receptor binding ability measured by inhibition of 3H-LVP binding; details: read-out: Pig V2 KB
T1 construct: in the medullary tissue of hog kidneys; from tissue; host or cells: hog kidney medullary tissue
Method: (§1) Antagonistic activity at the V2 -vasopressin receptors is determined in a protocol which determines in vitro activity in pig tissue or in vivo diuretic activity in the hydropenic rat (ED300 μg/kg). These procedures are described in the literature. F. Stassen et al., 1st International Conference on Diuretics, Miami, Fla., March (1984).
(§2) Antagonistic activity at the V1 -vasopressin receptors is determined in a protocol which measures the reversal of the vasopressin induced contraction of rat thoracic aorta tissue. This is expressed as KB (nM) in the table below. Such anti-pressor activity is confirmed in a similar in vitro protocol using the plasma membranes of rat liver. V2 -vasopressin antagonism is determined as receptor binding ability measured by inhibition of 3H-LVP binding (KB as nM), by inhibition of adenylate cyclase activation by vasopressin in the medullary tissue of hog kidneys (Ki as nM) or in vivo in the […] rat protocol (ED300 μg/kg). These procedures are described in the literature: F. Stassen et al., J. Pharmacology and Experimental Therapeutics, 223 50 (1982).

V2-vasopressin receptors [2] = biological target: T1, V2-vasopressin receptors; assay: inhibition of adenylate cyclase activation by vasopressin in the medullary tissue of hog kidneys; format: biochemical; details: hog kidney medullary tissue, vasopressin-activated adenylate cyclase; read-out: Pig V2 Ki
Method: as §1
as §2, with “Such anti-pressor activity is confirmed in a similar in vitro protocol using the plasma membranes of rat liver.” left out

V1-vasopressin receptors = biological target: T2, V1-vasopressin receptors (Rattus norvegicus, UniProt P30560); assay: reversal of the vasopressin induced contraction of rat thoracic aorta tissue
T2 construct: vasopressin induced contraction of rat thoracic aorta tissue; from tissue; host or cells: rat thoracic aorta tissue
Method: as §2

T2 sequence (P30560 whole entry): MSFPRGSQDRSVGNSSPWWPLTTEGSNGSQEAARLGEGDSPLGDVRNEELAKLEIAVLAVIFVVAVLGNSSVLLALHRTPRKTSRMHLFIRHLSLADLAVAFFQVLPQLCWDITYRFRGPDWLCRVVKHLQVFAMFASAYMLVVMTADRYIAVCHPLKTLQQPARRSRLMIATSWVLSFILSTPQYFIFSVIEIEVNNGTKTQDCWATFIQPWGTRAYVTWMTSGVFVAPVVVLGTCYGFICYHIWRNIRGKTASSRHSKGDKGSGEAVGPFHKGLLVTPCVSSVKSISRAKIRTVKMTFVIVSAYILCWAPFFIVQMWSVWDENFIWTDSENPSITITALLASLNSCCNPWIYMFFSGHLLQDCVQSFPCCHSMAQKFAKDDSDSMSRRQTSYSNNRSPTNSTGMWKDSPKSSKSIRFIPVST
T1 sequence (P32307 whole entry): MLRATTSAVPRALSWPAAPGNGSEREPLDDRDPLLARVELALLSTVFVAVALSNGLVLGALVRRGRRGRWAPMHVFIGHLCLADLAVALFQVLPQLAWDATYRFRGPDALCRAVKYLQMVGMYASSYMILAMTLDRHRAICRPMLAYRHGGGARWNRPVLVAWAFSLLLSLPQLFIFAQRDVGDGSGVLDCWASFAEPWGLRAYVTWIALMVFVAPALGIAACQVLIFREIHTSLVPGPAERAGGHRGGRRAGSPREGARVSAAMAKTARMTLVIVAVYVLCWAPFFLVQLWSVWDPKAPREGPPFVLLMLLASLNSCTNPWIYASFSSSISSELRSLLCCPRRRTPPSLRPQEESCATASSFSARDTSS

Compound | Kb (V2-vasopressin receptors [1]) | Ki (V2-vasopressin receptors [2]) | Kb (V1-vasopressin receptors)
CCOc1ccc(C[C@H]2NC(=O)CC3(CCCCC3)SSC[C@@H](C(=O)NC(C)(C)C(=O)N[C@@H](CCCNC(=N)N)C(N)=O)NC(=O)[C@H](CC(N)=O)NC(=O)[C@H](C(C)C)NC(=O)[C@H](Cc3ccccc3)NC2=O)cc1 [E, [1-(β,β-cyclopentamethylene-β-mercaptopropionic acid)-2-(O-ethyl-D-tyrosine)-4-valine-7-α-aminoisobutyric acid-8-arginine-9-desglycine]vasopressin] ([dY](Et)FVNC[Aib]R-NH2; linker N-5 via X1) | 15 nM | 16 nM | –
CCOc1ccc(C[C@H]2NC(=O)CC3(CCCCC3)SSC[C@@H](C(=O)N3CCC[C@H]3C(=O)N[C@@H](CCCN=C(N)N)C(=O)NCC(N)=O)NC(=O)[C@H](CC(N)=O)NC(=O)[C@H](C(C)C)NC(=O)[C@H](Cc3ccccc3)NC2=O)cc1 [G, [1-(β,β-cyclopentamethylene-β-mercaptopropionic acid)-2-(O-ethyl-D-tyrosine)-4-valine-8-arginine]vasopressin, reference compound] ([dY](Et)FVNCPRG-NH2; linker N-5 via X1) | 6.7 nM | – | 1.4 nM
CCOc1ccc(C[C@H]2NC(=O)CC3(CCCCC3)SSC[C@@H](C(=O)NC(C)(C)C(=O)N[C@@H](CCCNC(=N)N)C(=O)NCC(N)=O)NC(=O)[C@H](CC(N)=O)NC(=O)[C@H](C(C)C)NC(=O)[C@H](Cc3ccccc3)NC2=O)cc1 [A, [1-(β,β-cyclopentamethylene-β-mercaptopropionic acid)-2-(O-ethyl-D-tyrosine)-4-valine-7-α-aminoisobutyric acid-8-arginine]vasopressin] ([dY](Et)FVNC[Aib]RG-NH2; linker N-5 via X1) | 9.2 nM | 18 nM | –
CCOc1ccc(C[C@H]2NC(=O)CC3(CCCCC3)SSC[C@@H](C(=O)N3CCC[C@H]3C(=O)N[C@@H](CCCNC(=N)N)C(=O)NCC(N)=O)NC(=O)[C@H](CC(N)=O)NC(=O)[C@](C)(C(C)C)NC(=O)[C@H](Cc3ccccc3)NC2=O)cc1 [C, [1-(β,β-cyclopentamethylene-β-mercaptopropionic acid)-2-(O-ethyl-D-tyrosine)-4-α-methylvaline-8-arginine]vasopressin] ([dY](Et)F[αMeV]NCPRG-NH2; linker N-5 via X1) | 11 nM | 31 nM | –
COc1ccc(C[C@@H]2NC(=O)CC3(CCCCC3)SSC[C@@H](C(=O)N3CCC[C@H]3C(=O)N[C@@H](CCCN=C(N)N)C(=O)NCC(N)=O)NC(=O)[C@H](CC(N)=O)NC(=O)[C@H](C(C)C)NC(=O)[C@H](Cc3ccccc3)NC2=O)cc1 [F, [1-(β,β-cyclopentamethylene-β-mercaptopropionic acid)-2-(O-methyl-L-tyrosine)-4-valine-8-arginine]vasopressin, reference compound] (Y(Me)FVNCPRG-NH2; linker N-5 via X1) | 35 nM | 88 nM | 12 nM
COc1ccc(C[C@@H]2NC(=O)CC3(CCCCC3)SSC[C@@H](C(=O)N3CCC[C@H]3C(=O)N[C@@H](CCCNC(=N)N)C(=O)NCC(N)=O)NC(=O)[C@H](CC(N)=O)NC(=O)[C@](C)(C(C)C)NC(=O)[C@H](Cc3ccccc3)NC2=O)cc1 [D, [1-(β,β-cyclopentamethylene-β-mercaptopropionic acid)-2-(O-methyl L-tyrosine)-4-α-methylvaline-8-arginine]vasopressin] (Y(Me)F[αMeV]NCPRG-NH2; linker N-5 via X1) | 170 nM | 490 nM | 18 nM
CCOc1ccc(C[C@H]2NC(=O)CC3(CCCCC3)SSC[C@@H](C(=O)N3CCC[C@H]3C(=O)N[C@@H](CCCNC(=N)N)C(N)=O)NC(=O)[C@H](CC(N)=O)NC(=O)C(C)(C)NC(=O)[C@H](Cc3ccccc3)NC2=O)cc1 [B, [1-(β,β-cyclopentamethylene-β-mercaptopropionic acid)-2-(O-ethyl-D-tyrosine)-4-α-aminoisobutyric acid-8-arginine-9-desglycine]vasopressin] ([dY](Et)F[Aib]NCPR-NH2; linker N-5 via X1) | 580 nM | 140 nM | –
